Results from article PMC8217011, “Natural brominated phenoxyphenols kill persistent and biofilm-incorporated cells of MRSA and other pathogenic bacteria” (Applied Microbiology and Biotechnology, 2020).
Values joined by “and” are separate entries in the source; they are usually repeats but may differ in a detail not shown here. Identical values can stand only once.

Columns and labels:
[1] = system: actively replicating MRSA strain Mu50; assay: Killing kinetics, actively replicating cells (CFU plating); assay type: cell-based, Staphylococcus aureus; conditions: MHB, start 10^6 CFU/mL; for time of first antibacterial effects: 4× MIC; for time until viability reached the detection limit: PPs at 4× MIC, moxifloxacin 20 μM, detection limit 10^2 CFU/mL
Protocol: S. aureus cells were freshly incubated in MHB until an OD600 nm of approx. 0.6 was reached. Next, the cells were diluted to 10^6 CFU/mL in 5 mL MHB. […] At certain time points (0, 0.5, 1, 3, 6, 8, 24 h), 100 μL was removed from the culture, diluted and plated onto MHA plates. After 24-h incubation, colonies were counted and viability (expressed as colony-forming units per mL (CFU/mL)) was calculated considering the dilution factor.

A. baumannii ATCC 747 = assay: Killing kinetics, replicating cells; assay type: cell-based; conditions: 2-bromo-PP 3.125 µM, 3-bromo-PP 6.25 µM; multidrug-resistant Acinetobacter baumannii as worded
Protocol: 39 Figure S2 – Bactericidal effects of 2-bromo-PP and 3-bromo-PP against replicating
40 cells of A. baumannii ATCC 747. Colistin was used as positive control (3.125 µM). 2-
41 bromo-PP and 3-bromo-PP were used at concentrations of 3.125 µM and 6.25 µM,
42 respectively. The limit of detection was 500 CFU/mL.
(1 picture or pasted object on this page, not shown here)

HepG2 (CLS 300198) = assay: Cytotoxicity assay (Resazurin); assay type: cell-based; conditions: Homo sapiens, HepG2, 48 h, 2 days
Protocol: (§1) Human cell lines were grown in their respective growth medium. Cells have been counted using a haemocytometer, and cell density was adjusted to 10^6 cells/mL. A 2-fold serial dilution was prepared in 96-well U-bottom plates, and cells were sown into the wells to a final density of […]. After 2 days at 37 °C and 5% CO2, 10 μL of a 100 μg/mL Resazurin dye solution was added to each well and was incubated for several hours. The reaction was inactivated with 100 μL of a 10% formalin solution per well. Finally, the fluorescence was quantified in a plate reader with 535-nm excision and 590-nm emission wavelengths.

THP-1 (ATCC TIB-202) = assay: Cytotoxicity assay (Resazurin); assay type: cell-based; conditions: Homo sapiens, THP-1, 48 h, 2 days
Protocol: as §1

HuH7 (CLS 300156) = assay: Cytotoxicity assay (Resazurin); assay type: cell-based; conditions: Homo sapiens, Huh-7, 48 h, 2 days
Protocol: as §1

HEK293 (CLS 300192) = assay: Cytotoxicity assay (Resazurin); assay type: cell-based; conditions: Homo sapiens, HEK293, 48 h, 2 days
Protocol: as §1

MRC-5 (ATCC CCL-171) = assay: Cytotoxicity assay (Resazurin); assay type: cell-based; conditions: Homo sapiens, MRC5, 48 h, 2 days
Protocol: as §1

CLS-54 (CLS 300227) = assay: Cytotoxicity assay (Resazurin); assay type: cell-based; conditions: Homo sapiens, 48 h, 2 days
Protocol: as §1

human PBMNCs = system: human PBMNCs; set-up: method as in Mayer et al. [2019]; conditions: ref Mayer et al. [2019]; cited from earlier work
[2] = system: stationary phase-induced persistent cells of MRSA strain Mu50; assay: Persister killing kinetics (CFU plating); assay type: cell-based, Staphylococcus aureus; conditions: start 10^8 CFU/mL
Protocol: For persister killing kinetics, cells were grown overnight until a density of OD600 nm > 5.0 was reached and then washed three times with PBS. Next, cell density was adjusted to 10^8 CFU/mL in 5 mL PBS. […] Analysis was performed as described above.

[3] = system: Pseudomonas aeruginosa PAO1; assay: MIC determination (microbroth dilution); assay type: cell-based
Protocol: (§2) Cultures were, if not stated differently, incubated at 37 °C with aeration and shaking (150 rpm) in Mueller-Hinton broth (MHB). Bacteria were freshly incubated at the next morning from an overnight pre-culture for actively growing bacteria to an OD600 nm of approx. 0.6. To ensure persistent growth form, the bacteria were grown overnight until a density at OD600 nm > 5.0 was obtained. For biofilm growth, some colonies from a Mueller-Hinton agar (MHA) plate were picked and resuspended in MHB. Cell density has been adjusted to OD600 nm = 0.8, and cells were sown into a flat-bottom 96-well plate to be incubated statically at 37 °C with aeration. Studies were mainly performed with S. aureus Mu50.
(§3) The minimal inhibitory concentration (MIC) has been determined according to the CSLI guidelines (CLSI [2012]). Briefly, in a sterile polystyrene U-bottom 96-well plate, a 2-fold serial dilution ranging from 100 to 0.78 μM of testing compounds has been prepared in 50 μL MHB. A freshly inoculated S. aureus culture was grown until OD600 nm of approx. 0.6 and diluted to 10^6 CFU/mL in MHB. Finally, 50 μL of the latter cell suspension was added to each well and then incubated statically for 18–24 h at 37 °C. MIC was determined using BacTiterGlo ATP assay (Promega, Madison, WI, USA) and Tecan Infinite F200 Pro (Tecan, Männedorf, Switzerland). Moxifloxacin and DMSO were used as positive and negative control, respectively. Sublethal concentrations of colistin (0.1 μM) were used in some experiments to increase the permeability of the gram-negative cell envelope for compound testing. For E. cloacae, a broth microdilution assay was performed using a serial 2-fold dilution in 96-well flat-bottomed plates (Falcon, BD Bioscience, Heidelberg) of both PPs in broth LB medium (Roth, Karlsruhe) at a concentration range of 50–0.024 μM.

A. baumannii ATCC 1605 = assay: MIC determination (microbroth dilution); assay type: cell-based; conditions: Acinetobacter baumannii, ATCC1605, multidrug-resistant strain
Protocol: as §2, §3

S. aureus USA300 = assay: MIC determination (microbroth dilution); assay type: cell-based; conditions: Staphylococcus aureus
Protocol: as §2, §3

[4] = system: Staphylococcus aureus strain ATCC 25923; assay: MIC determination (microbroth dilution); assay type: cell-based; conditions: ATCC25923
Protocol: as §2, §3

[5] = system: Acinetobacter baumannii ATCC 747; assay: MIC determination (microbroth dilution); assay type: cell-based; conditions: Acinetobacter baumannii, ATCC747
Protocol: as §2, §3

[6] = system: Bacillus subtilis 168 trp C2; assay: MIC determination (microbroth dilution); assay type: cell-based; conditions: 168TRPC2
Protocol: as §2, §3

S. aureus Mu50 = assay: MIC determination (microbroth dilution); assay type: cell-based; conditions: Staphylococcus aureus
Protocol: as §2, §3

[7] = system: Klebsiella pneumoniae ATCC 700603; assay: MIC determination (microbroth dilution); assay type: cell-based; conditions: ATCC700603
Protocol: as §2, §3

E. faecalis ATCC 29212 = assay: MIC determination (microbroth dilution); assay type: cell-based; conditions: Enterococcus faecalis, ATCC29212
Protocol: as §2, §3

[8] = system: Enterococcus faecium ATCC 35667; assay: MIC determination (microbroth dilution); assay type: cell-based; conditions: ATCC35667
Protocol: as §2, §3

| SMILES | time of first antibacterial effects [1] [h] | time until viability reached the detection limit [1] [h] | bactericidal effect against replicating cells (A. baumannii ATCC 747) | IC50 (HepG2 (CLS 300198)) [µM] | IC50 (THP-1 (ATCC TIB-202)) [µM] | IC50 (HuH7 (CLS 300156)) [µM] | IC50 (HEK293 (CLS 300192)) [µM] | IC50 (MRC-5 (ATCC CCL-171)) [µM] | IC50 (CLS-54 (CLS 300227)) [µM] | cytotoxicity (human PBMNCs) | MIC90 [3] | MIC90 (A. baumannii ATCC 1605; + 0.1 μM colistin) | MIC90 (A. baumannii ATCC 1605; without colistin) | MIC90 (S. aureus USA300) | MIC90 [4] | MIC90 [5] | MIC90 [6] | MIC90 (S. aureus Mu50) | MIC90 [7] | MIC90 (E. faecalis ATCC 29212) | also measured |
| --- | --- | --- | --- | --- | --- | --- | --- | --- | --- | --- | --- | --- | --- | --- | --- | --- | --- | --- | --- | --- | --- |
| Oc1c(Br)cc(Br)cc1Oc1ccc(Br)cc1Br [2-bromo-PP, 4,6-dibromo-2-(2′,4′-dibromophenoxy)phenol] | 3 | 8 | comparable bactericidal effect | 50 | 6.25 | > 100 | 12.5 | > 100 | > 100 | low cytotoxicity | 0.78 µM and 0.39 µg/mL | 0.39 µM and 0.2 µg/mL | 0.78 µM and 0.39 µg/mL | 0.78 µM and 0.39 µg/mL | 0.39 µM and 0.2 µg/mL | 0.78 µM and 0.39 µg/mL | 0.39 µM and 0.2 µg/mL | 0.19 µM and 0.1 µg/mL | 1.56 µM and 0.78 µg/mL | 0.78 µM and 0.39 µg/mL | time until viability reduced to the detection limit ([2]; PPs at 4× MIC, NH125 10 μM, detection limit 10^2 CFU/mL): 8 h; MIC90 [8]: 0.78 µM and 0.39 µg/mL |
| Oc1c(Br)cc(Br)c(Br)c1Oc1ccc(Br)cc1Br [3-bromo-PP, 3,4,6-tribromo-2-(2′,4′-dibromophenoxy)phenol] | 6 | 8 | comparable bactericidal effect | 25 | 50 | > 100 | 3.12 | 100 | > 100 | low cytotoxicity | 1.56 µM and 0.9 µg/mL | 0.78 µM and 0.45 µg/mL | 1.56 µM and 0.91 µg/mL | 0.39 µM and 0.23 µg/mL | 0.78 µM and 0.45 µg/mL | 3.12 µM and 1.81 µg/mL | 0.39 µM and 0.23 µg/mL | 0.1 µM and 0.06 µg/mL | 3.12 µM and 1.81 µg/mL | 0.78 µM and 0.45 µg/mL | decrease of viability of persistent cells after 24 h ([2]; 3-bromo-PP at 4× MIC, moxifloxacin control, 24 h): 2 logs; MIC90 [8]: 0.39 µM and 0.23 µg/mL |
